Columns and labels:
[1] = test system: LNCaP tumor-bearing CB17-SCID mice; assay: Biodistribution studies 24 h p.i.; format: in vivo; conditions: 177Lu-labelled, mean±SD, n=4-5
Description: All animal experiments were conducted in accordance with general animal welfare regulations in Germany (German animal protection act, as amended on 18 May 2018, Art. 141 G v. 29.3.2017|626, approval no. 55.2-1-54-2532-71-13) and the institutional guidelines for the care and use of animals. To establish tumor xenografts, LNCaP cells (approx. 10^7 cells) were suspended in 200 μL of a 1:1 mixture (v/v) of DMEM F-12 and Matrigel (BD Biosciences, Germany), and inoculated subcutaneously onto the right shoulder of 6-8 weeks old CB17-SCID mice (Charles River, Sulzfeld, Germany). Mice were used for experiments when tumors had grown to a diameter of 5-10 mm (3-6 weeks after inoculation).
Approximately 5-10 MBq (0.1-0.2 nmol) of the radioactive-labelled PSMA inhibitors were injected into the tail vein of LNCaP tumor-bearing male CB-17 SCID mice and sacrificed after 24 h post injection. Selected organs were removed, weighted and measured in a γ-counter.
FIG. 10 and the following table show the biodistribution data 24 h p.i. of ^177Lu-labeled compounds in LNCaP tumor-bearing CB17-SCID mice. Data are expressed as mean±SD (n=4-5).

[2] = molecular target: human serum albumin (HSA) (Homo sapiens, UniProt P02768); assay: HSA binding by radio inversed affinity chromatography (RIAC); format: in vitro ADME; conditions: 177Lu-labelled; Superdex 75 Increase 10/300 GL, 700 μM HSA in PBS, 0.8 mL/min
Description: A gel filtration column Superdex 75 Increase 10/300 GL (GE Healthcare, Uppsala, Sweden) was beforehand calibrated following the producer's recommendations with a commercially available gel filtration calibration kit (GE Healthcare, Buckinghamshire, UK) comprising conalbumin (MW: 75 kDa), ovalbumin (44 kDa), carbonic anhydrase (29 kDa), ribonuclease A (13.7 kDa) and aprotinin (6.5 kDa) as reference proteins of known molecular weight. RIAC experiments were conducted using a constant flow rate of 0.8 mL/min at rt. A solution of HSA in PBS at physiological concentration (700 μM) was used as the mobile phase. PSMA ligands were labelled as described with molar activities of 10-20 GBq/μmol. Probes of 1.0 MBq of the radioligand were injected directly from the labelling solution. HSA binding was expressed as an apparent molecular weight MW calculated from the retention time of the radioligand using the determined calibration curve.
The following table summarizes the underlying data. MW: molecular weight. tR: experimentally determined retention time. V: elution volume. Kav: partition coefficient.
RIAC, in an inversed way, comprises ligand samples (radiolabeled PSMA ligands) and a protein (HSA) containing mobile phase. Ligand-specific retention is caused by interaction of the ligand probe and HSA in the mobile phase. Unbound species, due to a molecular weight beneath the molecular cut off of the gel filtration column, are maximally retained while bound species are eluted in accordance to the higher molecular weight of the ligand-HSA-complex (MWHSA: 66.47 kDa). Experiments show a single radiopeak indicating a dynamic process of formation and dissociation of the ligand-HSA-complex throughout the passage through the column bed. Accordingly, the absolute retention time is the result of the ligand's mean time of abidance at HSA which is directly defined by the ligand's binding kinetics and affinity toward HSA. For evaluation, experimentally determined retention times tR are first converted into elution volumes Ve by multiplying with the flow rate and thereafter converted into partition coefficients Kav following the equation
where V0 is the column void volume (8.027 mL) and Vc is the geometric column volume (24 mL). Using the equation given by the trend line plot of the column calibration
the apparent molecular weight MW is calculated as
FIG. 7 and the table below show the results HSA-binding of lutetium-complexed PSMA-ligands and reference compounds determined by RIAC on a Superdex 75 Increase 10/300 GL column 700 μM HSA in PBS as solvent using a constant flow rate of 0.8 mL/min (plotted data, extracted from FIG. 8).
FIG. 8 illustrates the determination of HSA binding via radio inverse affinity chromatography (RIAC). Correlation of apparent molecular weight (MW) in Dalton (Da) and retention time of ^177Lu-labeled samples, determined on a Superdex 75 Increase 10/300 GL with 700 μM HSA in PBS as solvent using a constant flow rate of 0.8 mL/min.

LNCaP cells = assay: Internalization studies on LNCaP cells; format: cell-based; conditions: 177Lu-labelled, c=1.0 nM, 1 hour, 37 °C; % of reference ligand ([125I]I-BA)KuE (c=0.2 nM); corrected for non-specific binding (PMPA); mean±SD, n=3-6
Description: PSMA-positive LNCAP cells (300265; Cell Lines Service, Eppelheim, Germany) were cultivated in Dulbecco modified Eagle medium/Nutrition Mixture F-12 with Glutamax (1:1) (DMEM-F12, Biochrom, Berlin, Germany) supplemented with fetal bovine serum (10%, FBS Zellkultur, Berlin, Germany) and kept at 37° C. in a humidified CO2 atmosphere (5%). A mixture of trypsin and EDTA (0.05%, 0.02%) in PBS (Biochrom) was used in order to harvest cells. Cells were counted with a Neubauer hemocytometer (Paul Marienfeld, Lauda-Königshofen, Germany).
For internalization studies, LNCaP cells were harvested 24±2 hours before the experiment and seeded in poly-L-lysine coated 24-well plates (1.25×10^5 cells in 1 mL/well, Greiner Bio-One, Kremsmünster, Austria). After removal of the culture medium, the cells were washed once with 500 μL DMEM-F12 (5% BSA) and left to equilibrate for at least 15 min at 37° C. in 200 μL DMEM-F12 (5% BSA). Each well was treated with either 25 μL of either DMEM-F12 (5% BSA, control) or 25 μL of a 100 μM PMPA (2-(Phosphonomethyl)-pentandioic acid, Tocris Bioscience, Bristol, UK) solution in PBS, for blockade. Next, 25 μL of the radioactive-labelled PSMA inhibitor (10.0 nM in PBS) was added and the cells were incubated at 37° C. for 60 min. The experiment was terminated by placing the 24-well plate on ice for 3 min and consecutive removal of the medium. Each well was carefully washed with 250 μL of ice-cold HBSS. Both fractions from the first steps, representing the amount of free radioligand, were combined. Removal of surface bound activity was accomplished by incubation of the cells with 250 μL of ice-cold PMPA (10 μM in PBS) solution for 5 min and rinsed again with another 250 μL of ice-cold PBS. The internalized activity was determined by incubation of the cells in 250 μL 1 M aqueous NaOH for at least 10 min. The obtained fractions were combined with those of the subsequent wash step with 250 μL 1 M aqueous NaOH. Each experiment (control and blockade) was performed in triplicate. Free, surface bound and internalized activity was quantified in a γ-counter. All internalization studies were accompanied by external reference studies, using ([^125I]l-BA)KuE (c=0.2 nM), which were performed analogously. Data were corrected for non-specific binding and normalized to the specific-internalization observed for the radioiodinated reference compound.
Data is corrected for non-specific binding (10 μmol PMPA) and expressed as mean±SD (n=3-6): […]

Sequence of human serum albumin (HSA) (P02768 25-609): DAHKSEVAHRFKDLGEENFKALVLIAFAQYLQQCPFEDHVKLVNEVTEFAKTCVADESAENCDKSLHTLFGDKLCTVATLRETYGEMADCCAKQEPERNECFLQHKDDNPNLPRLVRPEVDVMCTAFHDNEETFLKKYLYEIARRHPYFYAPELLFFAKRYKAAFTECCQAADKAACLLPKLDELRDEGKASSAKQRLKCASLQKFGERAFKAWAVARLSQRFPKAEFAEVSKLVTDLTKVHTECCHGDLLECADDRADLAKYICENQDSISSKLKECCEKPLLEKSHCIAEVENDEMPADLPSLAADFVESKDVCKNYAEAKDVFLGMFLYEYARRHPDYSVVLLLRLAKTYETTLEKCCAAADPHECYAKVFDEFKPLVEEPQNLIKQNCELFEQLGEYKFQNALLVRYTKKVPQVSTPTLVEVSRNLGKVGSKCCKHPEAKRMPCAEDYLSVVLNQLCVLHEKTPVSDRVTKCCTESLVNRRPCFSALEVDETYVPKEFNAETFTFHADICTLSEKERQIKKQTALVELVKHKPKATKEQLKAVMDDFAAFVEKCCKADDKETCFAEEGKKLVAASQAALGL

SMILES: O=C(O)CC[C@H](NC(=O)N[C@@H](CCCCNC(=O)CCCCCCC(=O)NCCCC[C@@H](NC(=O)[C@@H](Cc1ccccc1)NC(=O)[C@@H](Cc1ccc(O)c(I)c1)NC(=O)CCC(C(=O)O)N1CCN(CC(=O)O)CCN(CC(=O)O)CCN(CC(=O)O)CC1)C(=O)O)C(=O)O)C(=O)O (stereo partly drawn) [PSMA I&T, reference compound]
- biodistribution: tumor ([1]; LNCaP xenograft): 4.1 ± 1.1 % ID/g
- biodistribution: blood ([1]; i.v. tail vein): 0.012 ± 0.01 % ID/g
- biodistribution: adrenals [1]: 1.06 ± 0.24 % ID/g
- biodistribution: bone [1]: 0.01 ± 0.01 % ID/g
- biodistribution: heart [1]: 0.05 ± 0.03 % ID/g
- biodistribution: intestine [1]: 0.12 ± 0.06 % ID/g
- biodistribution: kidneys [1]: 34.7 ± 17.2 % ID/g
- biodistribution: liver [1]: 0.05 ± 0.01 % ID/g
- biodistribution: lung [1]: 0.16 ± 0.03 % ID/g
- biodistribution: muscle [1]: 0.01 ± 0.01 % ID/g
- biodistribution: pancreas [1]: 0.05 ± 0.02 % ID/g
- biodistribution: spleen [1]: 1.94 ± 1.01 % ID/g
- biodistribution: stomach [1]: 0.05 ± 0.02 % ID/g
- HSA-binding RIAC (apparent molecular weight) [2]: 5.3 kDa
- Internalization (% IBA) (LNCaP cells): 76 ± 2 % IBA

From patent US20230277698A1, “SILICON-CONTAINING LIGAND COMPOUNDS” (Technische Universität München, priority 2020, published 2023)
